Reference: patent publication US20260182577A1, “COMBINATIONS TREATMENTS” (Aequor Inc., priority 2020, published 2026)
Where “and” joins values, the source holds several entries; their conditions need not be identical. Equal values may be shown once. Read-outs that look alike come from different tables or passages of the source.

Columns and labels:
[1] = system: S. aureus ATCC 12600 biofilm; experiment: Biofilm inhibition (MBIC), Syto 9 imaging; format: cell-based, Staphylococcus aureus
Description: (§1) FIGS. 1A and 1B show biofilm inhibition by butyl phosphoramidate (BPA), sodium dodecylbenzenesulfonate (SDBS), and 4-Dodecylbenzenesulfonic acid (DBSA) against Staphylococcus aureus ATCC 12600 and E. coli ATCC 11775, which was determined by (A) measuring total intensity with Ex/Em (nm): 456/541 and (B) staining biofilm with Syto 9 green-fluorescent nucleic acid stain. Biofilm images appear white and gray and images without biofilm appear black. Images of untreated biofilm, sub-MBIC, and MBIC were taken using MiniMax 300 Imaging Cytometer (Molecular Devices).
(§2) Imaging. Biofilm inhibition imaging was determined by growing biofilm in a black-walled optically-clear bottom 96 well plate at a 45° angle to promote biofilm formation prior to imaging. Biofilm was stained with Syto 9 green fluorescent live and dead nucleic acid stain and measuring total intensity with excitation/emission (nm): 456/541. Images of biofilm were taken using MiniMax 300 Imaging Cytometer (Molecular Devices).

[2] = system: Staphylococcus aureus VRSA VRS7 NR-46417; experiment: MIC broth microdilution, compounds and antibiotics alone and in combination; format: cell-based; conditions: for MIC: Staphylococcus aureus, read-out: Minimum Inhibitory Concentration (MIC)
Description: (§3) Antibiotic and Antibiofilm Susceptibility Tests. Minimum inhibitory concentration (MIC) broth microdilution method was performed according to CLSI guidelines (CLSI M07-A10: Methods for Dilution Antimicrobial Susceptibility Tests for Bacteria that Grow
(§4) Aerobically; Approved Standard-Tenth Edition). Minimum bactericidal concentration (MBC) was performed according to CLSI guidelines (CLSI M26-A: Methods for Determining Bactericidal Activity of Antimicrobial Agents; Approved Guideline).
(§5) The antibiotic resistance breakpoints were defined according to the recommendations of the Clinical and Laboratory Standards Institute (CLSI M07-A10: Methods for Dilution Antimicrobial Susceptibility Tests for Bacteria That Grow Aerobically; Approved Standard-Tenth Edition).
Four antibiotics (penicillin G, methicillin, gentamycin, and vancomycin) were tested in combination with SDBS and DBSA, by using a checkerboard methodology against MRSA ATCC 33591 (methicillin-R, gentamicin-R; penicillin-R) and VRSA VRS7 BEI NR-46417 (methicillin-R, gentamicin-R; penicillin-R, vancomycin-R). The combinations were assessed by fractional inhibitory concentration indices (FICIs) and the fold reduction of the MIC (“potentiation factor”) was calculated. In clinical terms, a potentiator enhances the action of a drug.

[3] = system: Staphylococcus aureus MRSA ATCC 33591; experiment: as above; format: cell-based; conditions: for MIC: Staphylococcus aureus, read-out: Minimum Inhibitory Concentration (MIC); for MIC / Minimum Inhibitory Concentration (MIC): alone, or antibiotic with SDBS/DBSA at sub-MIC concentration
Description: as §3, §4, §5
Four antibiotics (penicillin G, methicillin, gentamycin, and vancomycin) were tested in combination with SDBS and DBSA, by using a checkerboard methodology against MRSA ATCC 33591 (methicillin-R, gentamicin-R; penicillin-R) and VRSA VRS7 BEI NR-46417 (methicillin-R, gentamicin-R; penicillin-R, vancomycin-R). The combinations were assessed by fractional inhibitory concentration indices (FICIs) and the fold reduction of the MIC (“potentiation factor”) was calculated. In clinical terms, a potentiator enhances the action of a drug. SDBS and […] potentiate methicillin, gentamicin, penicillin, and vancomycin activity against MRSA and VRSA making MRSA and VRSA sensitive to those antibiotics (Table 13).

[4] = system: E. coli ATCC 11775 biofilm; experiment: Biofilm inhibition (MBIC), Syto 9 imaging; format: cell-based
Description: as §1, §2

[5] = system: S. aureus ATCC 6358 biofilm; experiment: Minimum biofilm eradicating concentration (MBEC) assay, ASTM E2799-12; format: cell-based, Staphylococcus aureus
Description: Data corresponds to 4.4-Log reduction.
Minimum biofilm eradicating concentration (MBEC) was performed according to the ASTM standard (ASTM E2799-12; Standard Test Method for Testing Disinfectant Efficacy against Pseudomonas aeruginosa Biofilm using the MBEC Assay). Assays were performed in quadruplicates on more than one occasion.

[6] = system: P. aeruginosa type 2 mucoid ATCC 33468; experiment: MIC broth microdilution; format: cell-based, Pseudomonas aeruginosa
Description: as §3, §4

[7] = system: B. cepacia biofilm; experiment: Biofilm inhibition (MBIC); format: cell-based, Burkholderia cepacia
Description: as §2

[8] = VRSA VRS7 NR-46417, alone, or antibiotic with SDBS/DBSA at sub-MIC concentration

Row | Compound | MBIC (inhibition of biofilm formation) [1] [µg/mL] | MIC [2, 8] [µg/mL] | MIC [3] [µg/mL] | Resistant / sensitive by CLSI breakpoints ([2]; VRSA VRS7 NR-46417) | Resistant / sensitive by CLSI breakpoints [3] | also measured
1 | CCCCCCCCCCCCc1ccc(S(=O)(=O)O)cc1 [DBSA, 4-Dodecylbenzenesulfonic acid] | 100 | > 20 | 19 | – | – | –
2 | COc1cccc(OC)c1C(=O)N[C@@H]1C(=O)N2[C@@H]1SC(C)(C)[C@@H]2C(=O)O [Methicillin, methicillin] | – | > 22.7 | > 22.7 | (R) | (R) | –
3 | CC1(C)S[C@@H]2[C@H](NC(=O)Cc3ccccc3)C(=O)N2[C@H]1C(=O)O [Penicillin, penicillin G] | – | 11.3 | > 22.7 | (R) | (R) | –
4 | CCCCCCCCCCCCOS(=O)(=O)[O-].[Na+] [SDS, sodium dodecyl sulfate] | 140 | – | – | – | – | –
5 | CN[C@H](CC(C)C)C(=O)N[C@H]1C(=O)N[C@@H](CC(N)=O)C(=O)N[C@H]2C(=O)N[C@H]3C(=O)N[C@H](C(=O)N[C@H](C(=O)O)c4cc(O)cc(O)c4-c4cc3ccc4O)[C@H](O)c3ccc(c(Cl)c3)Oc3cc2cc(c3O[C@@H]2O[C@H](CO)[C@@H](O)[C@H](O)[C@H]2O[C@H]2C[C@](C)(N)[C@H](O)[C@H](C)O2)Oc2ccc(cc2Cl)[C@H]1O [Vancomycin, vancomycin] | – | – | – | (R) | – | MIC ([2]; VRSA): 22.7 µg/mL
6 | butyl phosphoramidate [BPA] | 50 | – | – | – | – | MBIC (inhibition of biofilm formation) [4]: 50 µg/mL; Log reduction of viable cells ([5]; after 10 minutes of exposure): 4.4 Log; removal of biofilm ([5]; after 10 minutes of exposure, colony counting CFU/ml): 99.99%; MBEC (removal of existing biofilm) ([5]; demonstrated by Lonza): < 25 µg/mL; Minimum Inhibitory Concentration (MIC) [6]: 25 µg/mL and 12.5 µg/mL; Minimum Inhibitory Concentration (MIC) [2, 8]: 25 µg/mL and 12.5 µg/mL; Minimum Inhibitory Concentration (MIC) [3]: 25 µg/mL and 12.5 µg/mL; MBIC (inhibition of biofilm formation) [7]: 50 µg/mL
7 | gentamicin | – | – | – | (R) | (R) | Minimum Inhibitory Concentration (MIC) [2, 8]: 22.7 µg/mL; Minimum Inhibitory Concentration (MIC) [3]: >45.4 µg/mL
